# Target: T1, human TLR7 (Homo sapiens, UniProt Q9NYK1)
# T1 construct: host or cells: HEK293 (HEK-Blue hTLR7)
# T1 sequence (Q9NYK1 27-1049): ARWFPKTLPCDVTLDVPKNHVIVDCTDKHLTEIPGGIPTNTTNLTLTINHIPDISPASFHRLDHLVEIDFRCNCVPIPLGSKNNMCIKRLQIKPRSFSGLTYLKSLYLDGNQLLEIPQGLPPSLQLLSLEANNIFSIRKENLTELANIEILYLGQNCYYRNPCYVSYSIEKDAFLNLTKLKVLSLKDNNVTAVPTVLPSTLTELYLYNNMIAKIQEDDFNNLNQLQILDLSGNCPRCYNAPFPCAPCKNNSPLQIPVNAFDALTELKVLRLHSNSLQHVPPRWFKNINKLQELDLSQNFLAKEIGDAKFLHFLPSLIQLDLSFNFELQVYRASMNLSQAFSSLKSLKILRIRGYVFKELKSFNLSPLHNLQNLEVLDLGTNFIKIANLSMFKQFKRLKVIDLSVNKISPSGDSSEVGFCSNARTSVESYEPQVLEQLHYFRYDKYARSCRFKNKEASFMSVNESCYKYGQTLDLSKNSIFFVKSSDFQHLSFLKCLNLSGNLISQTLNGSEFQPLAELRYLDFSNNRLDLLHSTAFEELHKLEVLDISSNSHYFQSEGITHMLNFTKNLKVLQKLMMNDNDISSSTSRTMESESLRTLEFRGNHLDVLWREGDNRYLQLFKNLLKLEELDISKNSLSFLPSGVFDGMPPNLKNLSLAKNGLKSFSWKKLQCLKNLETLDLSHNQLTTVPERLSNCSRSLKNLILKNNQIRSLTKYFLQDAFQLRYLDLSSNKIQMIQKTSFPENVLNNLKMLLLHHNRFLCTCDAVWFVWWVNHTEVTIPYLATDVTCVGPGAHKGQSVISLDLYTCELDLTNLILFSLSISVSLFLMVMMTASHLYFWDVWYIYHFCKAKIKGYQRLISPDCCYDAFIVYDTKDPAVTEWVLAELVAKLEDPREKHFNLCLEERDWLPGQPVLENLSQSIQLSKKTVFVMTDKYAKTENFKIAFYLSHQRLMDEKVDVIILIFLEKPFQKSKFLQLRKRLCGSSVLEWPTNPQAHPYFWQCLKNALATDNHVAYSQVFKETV
# Test: HEK293-Blue-hTLR-7 cells assay (SEAP reporter, R848 stimulation)
# Type: cell-based
# Settings: HEK293-Blue-hTLR7 cells, R848, 20 hrs; read-out: HEK/hTLR7 IC50
# Method in brief: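 HEK293-Blue-hTLR7 cells (NF-κB/AP-1-driven SEAP reporter) were stimulated with R848 alongside serially diluted compound at 1% final DMSO for 20 h at 37 °C. Supernatant SEAP was then developed with QUANTI-Blue for 2 h at 37 °C and absorbance read at 620–655 nm; antagonism is measured as reduced reporter signal.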
row,SMILES,IC50 [nM]
1,"C[C@@H]1CN(c2ccc(C#N)c3ncccc23)C[C@H](CN2CCN(c3ccnc(N[C@H]4CNC[C@H]4F)n3)CC2)O1 [Example 24, 5-[(2S,6R)-2-[[4-[2-[[(3S,4R)-4-fluoropyrrolidin-3-yl]amino]pyrimidin-4-yl]piperazin-1-yl]methyl]-6-methyl-morpholin-4-yl]quinoline-8-carbonitrile]",38
2,"C[C@@H]1CN(c2ccc(C#N)c3ncccc23)C[C@H](CN2CCN(c3ccnc(N4CCNCC(O)C4)n3)CC2)O1 (stereo partly drawn) [Example 25, 5-[(2S,6R)-2-[[4-[2-(6-hydroxy-1,4-diazepan-1-yl)pyrimidin-4-yl]piperazin-1-yl]methyl]-6-methyl-morpholin-4-yl]quinoline-8-carbonitrile]",26
3,"CO[C@H]1CN(c2nccc(N3CCN(C[C@H]4CN(c5ccc(C#N)c6ncccc56)C[C@@H](C)O4)CC3)n2)C[C@@H]1N [Example 26, 5-[(2S,6R)-2-[[4-[2-trans-(3-amino-4-methoxy-pyrrolidin-1-yl)pyrimidin-4-yl]piperazin-1-yl]methyl]-6-methyl-morpholin-4-yl]quinoline-8-carbonitrile]",8
4,"C[C@@H]1CN(c2ccc(C#N)c3ncccc23)C[C@H](CN2CCN(c3ccnc(NC4CNC4)n3)CC2)O1 [Example 28, 5-[(2S,6R)-2-[[4-[2-(azetidin-3-ylamino)pyrimidin-4-yl]piperazin-1-yl]methyl]-6-methyl-morpholin-4-yl]quinoline-8-carbonitrile]",11
5,"C[C@@H]1CN(c2ccc(C#N)c3ncccc23)C[C@H](CN2CCN(c3ccnc(N4CCN(C(=O)[C@@H]5CCCN5)CC4)n3)CC2)O1 [Example 31, 5-[(2R,6S)-2-methyl-6-[[4-[2-[4-[(2S)-pyrrolidine-2-carbonyl]piperazin-1-yl]pyrimidin-4-yl]piperazin-1-yl]methyl]morpholin-4-yl]quinoline-8-carbonitrile]",18
6,"C[C@@H]1CN(c2ccc(C#N)c3ncccc23)C[C@H](CN2CCN(c3ccnc(N4CCN(C(=O)C5CCN5)CC4)n3)CC2)O1 (stereo partly drawn) [Example 34, 5-[(2S,6R)-2-[[4-[2-[4-(azetidine-2-carbonyl)piperazin-1-yl]pyrimidin-4-yl]piperazin-1-yl]methyl]-6-methyl-morpholin-4-yl]quinoline-8-carbonitrile]",27
7,"C[C@@H]1CN(c2ccc(C#N)c3ncccc23)C[C@H](CN2CCN(c3cccc(N[C@H]4CNC[C@@H]4F)n3)CC2)O1 [Example 35, 5-[(2S,6R)-2-[[4-[6-[[(3S,4S)-4-fluoropyrrolidin-3-yl]amino]-2-pyridyl]piperazin-1-yl]methyl]-6-methyl-morpholin-4-yl]quinoline-8-carbonitrile]",65
8,"C[C@@H]1CN(c2ccc(C#N)c3ncccc23)C[C@H](CN2CCN(c3cccc(N4CCC(N)CC4)n3)CC2)O1 [Example 36, 5-[(2S,6R)-2-[[4-[6-(4-amino-1-piperidyl)-2-pyridyl]piperazin-1-yl]methyl]-6-methyl-morpholin-4-yl]quinoline-8-carbonitrile]",28
9,"C[C@@H]1CN(c2ccc(C#N)c3ncccc23)C[C@H](CN2CCN(c3cccc(N4CCNCC(O)C4)n3)CC2)O1 (stereo partly drawn) [Example 41, 5-[(2S,6R)-2-[[4-[6-(6-hydroxy-1,4-diazepan-1-yl)-2-pyridyl]piperazin-1-yl]methyl]-6-methyl-morpholin-4-yl]quinoline-8-carbonitrile]",81

# More lines, in order of falling IC50, values ahead:
row,IC50 [nM],SMILES
1,70,"C[C@@H]1CN(c2ccc(C#N)c3ncccc23)C[C@H](CN2CCN(c3cccc(N[C@H]4CNC[C@H]4F)n3)CC2)O1 [Example 37, 5-[(2S,6R)-2-[[4-[6-[[(3S,4R)-4-fluoropyrrolidin-3-yl]amino]-2-pyridyl]piperazin-1-yl]methyl]-6-methyl-morpholin-4-yl]quinoline-8-carbonitrile]"
2,50,"C[C@@H]1CN(c2ccc(C#N)c3ncccc23)C[C@H](CN2CCN(c3ccnc(N4CC(N)C4)n3)CC2)O1 [Example 23, 5-[(2S,6R)-2-[[4-[2-(3-aminoazetidin-1-yl)pyrimidin-4-yl]piperazin-1-yl]methyl]-6-methyl-morpholin-4-yl]quinoline-8-carbonitrile]"
3,35,"C[C@@H]1CN(c2ccc(C#N)c3ncccc23)C[C@H](CN2CCN(c3cccc(N4CC(N)C(F)C4)n3)CC2)O1 (stereo partly drawn) [Example 40, 5-[(2S,6R)-2-[[4-[6-(3-amino-4-fluoro-pyrrolidin-1-yl)-2-pyridyl]piperazin-1-yl]methyl]-6-methyl-morpholin-4-yl]quinoline-8-carbonitrile]"
4,24,"C[C@@H]1CN(c2ccc(C#N)c3ncccc23)C[C@H](CN2CCN(c3cccc(N4CCN(C)CC4)n3)CC2)O1 [Example 33, 5-[(2R,6S)-2-methyl-6-[[4-[6-(4-methylpiperazin-1-yl)-2-pyridyl]piperazin-1-yl]methyl]morpholin-4-yl]quinoline-8-carbonitrile]"
5,23,"CO[C@H]1CN(c2cccc(N3CCN(C[C@H]4CN(c5ccc(C#N)c6ncccc56)C[C@@H](C)O4)CC3)n2)C[C@H]1N [Example 42, 5-[(2S,6R)-2-[[4-[6-[(3R,4S)-3-amino-4-methoxy-pyrrolidin-1-yl]-2-pyridyl]piperazin-1-yl]methyl]-6-methyl-morpholin-4-yl]quinoline-8-carbonitrile]"
6,22,"COC1CN(c2ccc(N3CCN(C[C@H]4CN(c5ccc(C#N)c6ncccc56)C[C@@H](C)O4)CC3)cn2)CC1N (stereo partly drawn) [Example 43, 5-[(2S,6R)-2-[[4-[6-(3-amino-4-methoxy-pyrrolidin-1-yl)-3-pyridyl]piperazin-1-yl]methyl]-6-methyl-morpholin-4-yl]quinoline-8-carbonitrile]"
7,16,"C[C@@H]1CN(c2ccc(C#N)c3ncccc23)C[C@H](CN2CCN(c3ccnc(N4CCN[C@@H](CO)C4)n3)CC2)O1 [Example 29, 5-[(2S,6R)-2-[[4-[2-[(3R)-3-(hydroxymethyl)piperazin-1-yl]pyrimidin-4-yl]piperazin-1-yl]methyl]-6-methyl-morpholin-4-yl]quinoline-8-carbonitrile]"
8,16,"C[C@@H]1CN(c2ccc(C#N)c3ncccc23)C[C@H](CN2CCN(c3ccnc(OCCN(C)C)n3)CC2)O1 [Example 30, 5-[(2S,6R)-2-[[4-[2-[2-(dimethylamino)ethoxy]pyrimidin-4-yl]piperazin-1-yl]methyl]-6-methyl-morpholin-4-yl]quinoline-8-carbonitrile]"
9,16,C[C@@H]1CN(c2ccc(C#N)c3ncccc23)C[C@H](CN2CCN(c3cccc(NC4CNC4)n3)CC2)O1 [Example 38]
10,15,"C[C@@H]1CN(c2ccc(C#N)c3ncccc23)C[C@H](CN2CCN(c3ccnc(N4CCC(N)CC4)n3)CC2)O1 [Example 27, 5-[(2S,6R)-2-[[4-[2-(4-amino-1-piperidyl)pyrimidin-4-yl]piperazin-1-yl]methyl]-6-methyl-morpholin-4-yl]quinoline-8-carbonitrile]"
11,6,"C[C@@H]1CN(c2ccc(C#N)c3ncccc23)C[C@H](CN2CCN(c3ccnc(N4CCN(C(=O)CN(C)C)CC4)n3)CC2)O1 [Example 32, 5-[(2S,6R)-2-[[4-[2-[4-[2-(dimethylamino)acetyl]piperazin-1-yl]pyrimidin-4-yl]piperazin-1-yl]methyl]-6-methyl-morpholin-4-yl]quinoline-8-carbonitrile]"
